Tested on: human tonsil histocultures
Assay type: cell-based
Settings: for donors whose tissue responded by producing antigen-specific antibodies: antigen added to medium for 2 days, responding donors out of donors tested; for dose dependence of specific IgG response: antigen in the range of 10-100 ng/ml; for induction of antibody against the other antigen and effect on total IgG production: challenge by either TT or DT

Substance | donors whose tissue responded by producing antigen-specific antibodies | dose dependence of specific IgG response | induction of antibody against the other antigen and effect on total IgG production | absolute amount of anti-TT IgG in medium (varied from tissue to tissue)
diphtheria toxin [DT] | 17 of 24 | dose-dependent | did not induce the production of antibody against the other antigen nor did it increase total IgG production | 
tetanus toxoid | 42 out of 55 | dose-dependent | did not induce the production of antibody against the other antigen nor did it increase total IgG production | hundreds to several thousands

— US6551772B1, “Model for viral infection and immune response” (AntiCancer, Inc., priority 1996, dated 2003)
